In the NIST ThermoML archive (doi:10.1016/j.jct.2012.03.031):
Where “and” joins values, the source holds several entries; their conditions need not be identical. Equal values may be shown once.

Experiment: molar heat capacity at constant pressure
Details: 101.33 kPa

CCCCc1ccc(C(=O)Oc2ccc(C#N)c(F)c2)cc1 [4-cyano-3-fluorophenyl 4-butylbenzoate]
Details	molar heat capacity at constant pressure
61.92 K, Crystal 1, Small (less than 1 g) adiabatic calorimetry	106.31 J/K/mol
63.2 K, Crystal 1, Small (less than 1 g) adiabatic calorimetry	108.1 J/K/mol
63.41 K, Crystal 1, Small (less than 1 g) adiabatic calorimetry	108.62 J/K/mol
63.57 K, Crystal 2, Small (less than 1 g) adiabatic calorimetry	113.15 J/K/mol
64.91 K, Crystal 1, Small (less than 1 g) adiabatic calorimetry	110.74 J/K/mol
65.24 K, Crystal 2, Small (less than 1 g) adiabatic calorimetry	115.68 J/K/mol
65.3 K, Crystal 1, Small (less than 1 g) adiabatic calorimetry	111.15 J/K/mol
66.41 K, Crystal 1, Small (less than 1 g) adiabatic calorimetry	112.9 J/K/mol
66.93 K, Crystal 2, Small (less than 1 g) adiabatic calorimetry	118.1 J/K/mol
67.38 K, Crystal 1, Small (less than 1 g) adiabatic calorimetry	114.12 J/K/mol
67.91 K, Crystal 1, Small (less than 1 g) adiabatic calorimetry	115.02 J/K/mol
68.62 K, Crystal 2, Small (less than 1 g) adiabatic calorimetry	120.58 J/K/mol
69.41 K, Crystal 1, Small (less than 1 g) adiabatic calorimetry	117.19 J/K/mol
69.46 K, Crystal 1, Small (less than 1 g) adiabatic calorimetry	117 J/K/mol
70 K, Crystal 1, Vacuum adiabatic calorimetry	117.76 J/K/mol
70 K, Crystal 2, Vacuum adiabatic calorimetry	122.57 J/K/mol
70.32 K, Crystal 2, Small (less than 1 g) adiabatic calorimetry	123.03 J/K/mol
70.92 K, Crystal 1, Small (less than 1 g) adiabatic calorimetry	119.27 J/K/mol
71.53 K, Crystal 1, Small (less than 1 g) adiabatic calorimetry	119.9 J/K/mol
72.11 K, Crystal 2, Small (less than 1 g) adiabatic calorimetry	125.5 J/K/mol
72.44 K, Crystal 1, Small (less than 1 g) adiabatic calorimetry	121.32 J/K/mol
73.59 K, Crystal 1, Small (less than 1 g) adiabatic calorimetry	122.75 J/K/mol
73.96 K, Crystal 1, Small (less than 1 g) adiabatic calorimetry	123.47 J/K/mol
74.05 K, Crystal 2, Small (less than 1 g) adiabatic calorimetry	128.27 J/K/mol
75.49 K, Crystal 1, Small (less than 1 g) adiabatic calorimetry	125.48 J/K/mol
75.66 K, Crystal 1, Small (less than 1 g) adiabatic calorimetry	125.55 J/K/mol
76.08 K, Crystal 2, Small (less than 1 g) adiabatic calorimetry	131.11 J/K/mol
77.02 K, Crystal 1, Small (less than 1 g) adiabatic calorimetry	127.52 J/K/mol
77.72 K, Crystal 1, Small (less than 1 g) adiabatic calorimetry	128.25 J/K/mol
78.1 K, Crystal 2, Small (less than 1 g) adiabatic calorimetry	133.74 J/K/mol
78.56 K, Crystal 1, Small (less than 1 g) adiabatic calorimetry	129.55 J/K/mol
79.79 K, Crystal 1, Small (less than 1 g) adiabatic calorimetry	130.94 J/K/mol
80 K, Crystal 1, Vacuum adiabatic calorimetry	131.22 J/K/mol
80 K, Crystal 2, Vacuum adiabatic calorimetry	136.34 J/K/mol
80.1 K, Crystal 1, Small (less than 1 g) adiabatic calorimetry	131.58 J/K/mol
80.14 K, Crystal 2, Small (less than 1 g) adiabatic calorimetry	136.53 J/K/mol
81.65 K, Crystal 1, Small (less than 1 g) adiabatic calorimetry	133.56 J/K/mol
81.86 K, Crystal 1, Small (less than 1 g) adiabatic calorimetry	133.65 J/K/mol
82.17 K, Crystal 2, Small (less than 1 g) adiabatic calorimetry	139.24 J/K/mol
83.21 K, Crystal 1, Small (less than 1 g) adiabatic calorimetry	135.55 J/K/mol
83.93 K, Crystal 1, Small (less than 1 g) adiabatic calorimetry	136.28 J/K/mol
84.22 K, Crystal 2, Small (less than 1 g) adiabatic calorimetry	141.95 J/K/mol
84.77 K, Crystal 1, Small (less than 1 g) adiabatic calorimetry	137.59 J/K/mol
86 K, Crystal 1, Small (less than 1 g) adiabatic calorimetry	138.9 J/K/mol
86.27 K, Crystal 2, Small (less than 1 g) adiabatic calorimetry	144.59 J/K/mol
86.34 K, Crystal 1, Small (less than 1 g) adiabatic calorimetry	139.51 J/K/mol
87.92 K, Crystal 1, Small (less than 1 g) adiabatic calorimetry	141.49 J/K/mol
88.19 K, Crystal 1, Small (less than 1 g) adiabatic calorimetry	141.58 J/K/mol
88.32 K, Crystal 2, Small (less than 1 g) adiabatic calorimetry	147.21 J/K/mol
89.5 K, Crystal 1, Small (less than 1 g) adiabatic calorimetry	143.41 J/K/mol
90 K, Crystal 1, Vacuum adiabatic calorimetry	143.78 J/K/mol
90 K, Crystal 2, Vacuum adiabatic calorimetry	149.41 J/K/mol
90.38 K, Crystal 2, Small (less than 1 g) adiabatic calorimetry	149.91 J/K/mol
90.49 K, Crystal 1, Small (less than 1 g) adiabatic calorimetry	144.38 J/K/mol
91.1 K, Crystal 1, Small (less than 1 g) adiabatic calorimetry	145.38 J/K/mol
92.46 K, Crystal 2, Small (less than 1 g) adiabatic calorimetry	152.54 J/K/mol
92.69 K, Crystal 1, Small (less than 1 g) adiabatic calorimetry	147.26 J/K/mol
92.79 K, Crystal 1, Small (less than 1 g) adiabatic calorimetry	147.14 J/K/mol
94.3 K, Crystal 1, Small (less than 1 g) adiabatic calorimetry	149.22 J/K/mol
94.53 K, Crystal 2, Small (less than 1 g) adiabatic calorimetry	155.21 J/K/mol
95.09 K, Crystal 1, Small (less than 1 g) adiabatic calorimetry	149.9 J/K/mol
95.91 K, Crystal 1, Small (less than 1 g) adiabatic calorimetry	151.12 J/K/mol
96.62 K, Crystal 2, Small (less than 1 g) adiabatic calorimetry	157.81 J/K/mol
97.38 K, Crystal 1, Small (less than 1 g) adiabatic calorimetry	152.62 J/K/mol
97.53 K, Crystal 1, Small (less than 1 g) adiabatic calorimetry	153.02 J/K/mol
98.72 K, Crystal 2, Small (less than 1 g) adiabatic calorimetry	160.47 J/K/mol
99.17 K, Crystal 1, Small (less than 1 g) adiabatic calorimetry	154.93 J/K/mol
99.68 K, Crystal 1, Small (less than 1 g) adiabatic calorimetry	155.3 J/K/mol
100 K, Crystal 1, Vacuum adiabatic calorimetry	155.66 J/K/mol
100 K, Crystal 2, Vacuum adiabatic calorimetry	162.05 J/K/mol
100.8 K, Crystal 1, Small (less than 1 g) adiabatic calorimetry	156.84 J/K/mol
100.83 K, Crystal 2, Small (less than 1 g) adiabatic calorimetry	163.07 J/K/mol
101.98 K, Crystal 1, Small (less than 1 g) adiabatic calorimetry	157.93 J/K/mol
102.45 K, Crystal 1, Small (less than 1 g) adiabatic calorimetry	158.74 J/K/mol
102.94 K, Crystal 2, Small (less than 1 g) adiabatic calorimetry	165.76 J/K/mol
104.1 K, Crystal 1, Small (less than 1 g) adiabatic calorimetry	160.69 J/K/mol
104.29 K, Crystal 1, Small (less than 1 g) adiabatic calorimetry	160.64 J/K/mol
105.07 K, Crystal 2, Small (less than 1 g) adiabatic calorimetry	168.36 J/K/mol
105.76 K, Crystal 1, Small (less than 1 g) adiabatic calorimetry	162.57 J/K/mol
106.6 K, Crystal 1, Small (less than 1 g) adiabatic calorimetry	163.27 J/K/mol
107.21 K, Crystal 2, Small (less than 1 g) adiabatic calorimetry	170.99 J/K/mol
107.43 K, Crystal 1, Small (less than 1 g) adiabatic calorimetry	164.48 J/K/mol
108.92 K, Crystal 1, Small (less than 1 g) adiabatic calorimetry	165.88 J/K/mol
109.11 K, Crystal 1, Small (less than 1 g) adiabatic calorimetry	166.36 J/K/mol
109.36 K, Crystal 2, Small (less than 1 g) adiabatic calorimetry	173.6 J/K/mol
110 K, Crystal 1, Vacuum adiabatic calorimetry	167.09 J/K/mol
110 K, Crystal 2, Vacuum adiabatic calorimetry	174.41 J/K/mol
110.8 K, Crystal 1, Small (less than 1 g) adiabatic calorimetry	168.33 J/K/mol
111.24 K, Crystal 1, Small (less than 1 g) adiabatic calorimetry	168.49 J/K/mol
111.51 K, Crystal 2, Small (less than 1 g) adiabatic calorimetry	176.31 J/K/mol
112.5 K, Crystal 1, Small (less than 1 g) adiabatic calorimetry	170.17 J/K/mol
113.57 K, Crystal 1, Small (less than 1 g) adiabatic calorimetry	171.15 J/K/mol
113.68 K, Crystal 2, Small (less than 1 g) adiabatic calorimetry	178.98 J/K/mol
114.2 K, Crystal 1, Small (less than 1 g) adiabatic calorimetry	172.16 J/K/mol
115.87 K, Crystal 2, Small (less than 1 g) adiabatic calorimetry	181.77 J/K/mol
115.91 K, Crystal 1, Small (less than 1 g) adiabatic calorimetry	173.74 J/K/mol and 174.07 J/K/mol
117.64 K, Crystal 1, Small (less than 1 g) adiabatic calorimetry	175.95 J/K/mol
118.06 K, Crystal 2, Small (less than 1 g) adiabatic calorimetry	184.44 J/K/mol
118.26 K, Crystal 1, Small (less than 1 g) adiabatic calorimetry	176.37 J/K/mol
119.36 K, Crystal 1, Small (less than 1 g) adiabatic calorimetry	177.93 J/K/mol
120 K, Crystal 1, Vacuum adiabatic calorimetry	178.29 J/K/mol
120 K, Crystal 2, Vacuum adiabatic calorimetry	186.87 J/K/mol
120.27 K, Crystal 2, Small (less than 1 g) adiabatic calorimetry	187.2 J/K/mol
120.61 K, Crystal 1, Small (less than 1 g) adiabatic calorimetry	178.97 J/K/mol
121.1 K, Crystal 1, Small (less than 1 g) adiabatic calorimetry	179.82 J/K/mol
122.48 K, Crystal 2, Small (less than 1 g) adiabatic calorimetry	189.96 J/K/mol
122.85 K, Crystal 1, Small (less than 1 g) adiabatic calorimetry	181.85 J/K/mol
122.98 K, Crystal 1, Small (less than 1 g) adiabatic calorimetry	181.61 J/K/mol
124.61 K, Crystal 1, Small (less than 1 g) adiabatic calorimetry	182.88 J/K/mol
124.71 K, Crystal 2, Small (less than 1 g) adiabatic calorimetry	192.76 J/K/mol
125.35 K, Crystal 1, Small (less than 1 g) adiabatic calorimetry	184.23 J/K/mol
126.37 K, Crystal 1, Small (less than 1 g) adiabatic calorimetry	185.75 J/K/mol
126.95 K, Crystal 2, Small (less than 1 g) adiabatic calorimetry	195.55 J/K/mol
127.73 K, Crystal 1, Small (less than 1 g) adiabatic calorimetry	186.92 J/K/mol
128.14 K, Crystal 1, Small (less than 1 g) adiabatic calorimetry	187.6 J/K/mol
129.2 K, Crystal 2, Small (less than 1 g) adiabatic calorimetry	198.34 J/K/mol
129.93 K, Crystal 1, Small (less than 1 g) adiabatic calorimetry	189.59 J/K/mol
130 K, Crystal 1, Vacuum adiabatic calorimetry	189.39 J/K/mol
130 K, Crystal 2, Vacuum adiabatic calorimetry	199.38 J/K/mol
130.12 K, Crystal 1, Small (less than 1 g) adiabatic calorimetry	189.53 J/K/mol
131.47 K, Crystal 2, Small (less than 1 g) adiabatic calorimetry	201.3 J/K/mol
131.72 K, Crystal 1, Small (less than 1 g) adiabatic calorimetry	191.62 J/K/mol
132.53 K, Crystal 1, Small (less than 1 g) adiabatic calorimetry	192.14 J/K/mol
133.51 K, Crystal 1, Small (less than 1 g) adiabatic calorimetry	193.32 J/K/mol
133.74 K, Crystal 2, Small (less than 1 g) adiabatic calorimetry	204.25 J/K/mol
134.94 K, Crystal 1, Small (less than 1 g) adiabatic calorimetry	194.79 J/K/mol
135.4 K, Crystal 1, Small (less than 1 g) adiabatic calorimetry	195.42 J/K/mol
136.03 K, Crystal 2, Small (less than 1 g) adiabatic calorimetry	207.21 J/K/mol
137.37 K, Crystal 1, Small (less than 1 g) adiabatic calorimetry	197.39 J/K/mol and 197.54 J/K/mol
138.33 K, Crystal 2, Small (less than 1 g) adiabatic calorimetry	210.2 J/K/mol
139.32 K, Crystal 1, Small (less than 1 g) adiabatic calorimetry	199.71 J/K/mol
139.8 K, Crystal 1, Small (less than 1 g) adiabatic calorimetry	200.05 J/K/mol
140 K, Crystal 1, Vacuum adiabatic calorimetry	200.27 J/K/mol
140 K, Crystal 2, Vacuum adiabatic calorimetry	212.43 J/K/mol
140.64 K, Crystal 2, Small (less than 1 g) adiabatic calorimetry	213.3 J/K/mol
